In patent US10738028B2, “Spiro three-membered ring, spiro five-membered ring peptide deformylase inhibitor and use thereof in antibacteria and anti-tumor” (priority 2016, dated 2020):

Tests used:
Assay type in all cases: cell-based
[1] = system: Enterococcus faecalis (EFA); test: MIC, two-fold agar dilution (CLSI), clinical isolates
Procedure, shortened: (§1)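 Samples are serially diluted two-fold in agar following CLSI guidance. Plates are then inoculated with the tested strains. The lowest inhibiting concentration is recorded as MIC.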

[2] = system: Enterococcus faecium (EFM); test: as above
Procedure, shortened: as §1

[3] = system: Escherichia coli (including ESBLs, non-ESBLs); test: as above
Procedure, shortened: as §1

[4] = system: Moraxella catarrhalis (BCA); test: as above
Procedure, shortened: as §1

[5] = system: Streptococcus pneoumoniae (SPN); test: as above
Procedure, shortened: as §1

[6] = system: methicillin-resistant Staphylococcus aureus (MRSA); test: as above
Procedure, shortened: as §1

[7] = system: methicillin-resistant Staphylococcus epidermidis (MRSE); test: as above
Procedure, shortened: as §1

[8] = system: methicillin-sensitive Staphylococcus aureus (MSSA); test: as above
Procedure, shortened: as §1

[9] = system: methicillin-sensitive Staphylococcus epidermidis (MSSE); test: as above
Procedure, shortened: as §1

[10] = system: HCT-116 colorectal cancer cell line; test: CCK-8 proliferation inhibition; settings: Homo sapiens, HCT-116, 72 h, concentration of 30 μM; 72 hours; CCK-8; read-out: HCT116 inhibition rate/%
Procedure, shortened: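 Cells seeded at 2000 cells/well, cultured overnight at 37 °C, 5% CO2, then exposed to compound (DMSO; control 1‰ DMSO) for 72 h in McCoy's 5A with 10% newborn bovine serum. Viability read with 1:10 diluted CCK-8.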

O=CN(O)C[C@@H](CC1CCCC1)C(=O)N1CC2(CC2)C[C@H]1c1nc2ccccc2[nH]1 [Example 42, N—((R)-3-((S)-6-(1H-benzimidazol-2-yl)-5-azaspiro[2.4]heptane-5-yl)-2-(cyclopentylmethyl)-3-propylcarbonyl)-N-hydroxyformamide]
Anti-bacterial activity (MIC), strain EFA 15-1 ([1]; clinical isolate EFA 15-1): 16 µg/mL
Anti-bacterial activity (MIC), strain EFA 15-2 ([1]; clinical isolate EFA 15-2): 16 µg/mL
Anti-bacterial activity (MIC), strain EFA 15-3 ([1]; clinical isolate EFA 15-3): 4 µg/mL
Anti-bacterial activity (MIC), strain EFA 15-4 ([1]; clinical isolate EFA 15-4): 16 µg/mL
Anti-bacterial activity (MIC), strain EFA 15-5 ([1]; clinical isolate EFA 15-5): 16 µg/mL
Anti-bacterial activity (MIC), strain EFA 15-6 ([1]; clinical isolate EFA 15-6): 16 µg/mL
Anti-bacterial activity (MIC), strain EFA 15-9 ([1]; clinical isolate EFA 15-9): 16 µg/mL
Anti-bacterial activity (MIC), strain EFM 15-1 ([2]; clinical isolate EFM 15-1): 2 µg/mL
Anti-bacterial activity (MIC), strain EFM 15-2 ([2]; clinical isolate EFM 15-2): 4 µg/mL
Anti-bacterial activity (MIC), strain EFM 15-3 ([2]; clinical isolate EFM 15-3): 1 µg/mL
Anti-bacterial activity (MIC), strain EFM 15-4 ([2]; clinical isolate EFM 15-4): 4 µg/mL
Anti-bacterial activity (MIC), strain EFM 15-5 ([2]; clinical isolate EFM 15-5): 2 µg/mL
Anti-bacterial activity (MIC), strain EFM 15-6 ([2]; clinical isolate EFM 15-6): 4 µg/mL
Anti-bacterial activity (MIC), strain ECO+ 15-1 ([3]; clinical isolate ECO+ 15-1): 16 µg/mL
Anti-bacterial activity (MIC), strain ECO+ 15-2 ([3]; clinical isolate ECO+ 15-2): 32 µg/mL
Anti-bacterial activity (MIC), strain ECO+ 15-3 ([3]; clinical isolate ECO+ 15-3): 32 µg/mL
Anti-bacterial activity (MIC), strain ECO+ 15-4 ([3]; clinical isolate ECO+ 15-4): 16 µg/mL
Anti-bacterial activity (MIC), strain ECO− 15-1 ([3]; clinical isolate ECO− 15-1): 32 µg/mL
Anti-bacterial activity (MIC), strain ECO− 15-2 ([3]; clinical isolate ECO− 15-2): 32 µg/mL
Anti-bacterial activity (MIC), strain ECO− 15-3 ([3]; clinical isolate ECO− 15-3): 32 µg/mL
Anti-bacterial activity (MIC), strain ECO− 15-4 ([3]; clinical isolate ECO− 15-4): 32 µg/mL
Anti-bacterial activity (MIC), strain BCA 14-1 ([4]; clinical isolate BCA 14-1): 1 µg/mL
Anti-bacterial activity (MIC), strain BCA 14-4 ([4]; clinical isolate BCA 14-4): 2 µg/mL
Anti-bacterial activity (MIC), strain BCA 14-5 ([4]; clinical isolate BCA 14-5): 2 µg/mL
Anti-bacterial activity (MIC), strain BCA 14-6 ([4]; clinical isolate BCA 14-6): 2 µg/mL
Anti-bacterial activity (MIC), strain BCA 14-7 ([4]; clinical isolate BCA 14-7): 1 µg/mL
Anti-bacterial activity (MIC), strain BCA 14-8 ([4]; clinical isolate BCA 14-8): 4 µg/mL
Anti-bacterial activity (MIC), strain BCA 14-10 ([4]; clinical isolate BCA 14-10): 1 µg/mL
Anti-bacterial activity (MIC), strain SPN 16-2 ([5]; clinical isolate SPN 16-2): 1 µg/mL
Anti-bacterial activity (MIC), strain SPN 16-4 ([5]; clinical isolate SPN 16-4): 16 µg/mL
Anti-bacterial activity (MIC), strain MRSA 15-1 ([6]; clinical isolate MRSA 15-1): 2 µg/mL
Anti-bacterial activity (MIC), strain MRSA 15-2 ([6]; clinical isolate MRSA 15-2): 2 µg/mL
Anti-bacterial activity (MIC), strain MRSA 15-3 ([6]; clinical isolate MRSA 15-3): 1 µg/mL
Anti-bacterial activity (MIC), strain MRSA 15-4 ([6]; clinical isolate MRSA 15-4): 1 µg/mL
Anti-bacterial activity (MIC), strain MRSE 15-1 ([7]; clinical isolate MRSE 15-1): 2 µg/mL
Anti-bacterial activity (MIC), strain MRSE 15-2 ([7]; clinical isolate MRSE 15-2): 2 µg/mL
Anti-bacterial activity (MIC), strain MRSE 15-3 ([7]; clinical isolate MRSE 15-3): 2 µg/mL
Anti-bacterial activity (MIC), strain MRSE 15-7 ([7]; clinical isolate MRSE 15-7): 2 µg/mL
Anti-bacterial activity (MIC), strain MSSA 15-3 ([8]; clinical isolate MSSA 15-3): 2 µg/mL
Anti-bacterial activity (MIC), strain MSSA 15-4 ([8]; clinical isolate MSSA 15-4): 2 µg/mL
Anti-bacterial activity (MIC), strain MSSA 15-5 ([8]; clinical isolate MSSA 15-5): 1 µg/mL
Anti-bacterial activity (MIC), strain MSSA 15-6 ([8]; clinical isolate MSSA 15-6): 2 µg/mL
Anti-bacterial activity (MIC), strain MSSE 15-3 ([9]; clinical isolate MSSE 15-3): 2 µg/mL
Anti-bacterial activity (MIC), strain MSSE 15-4 ([9]; clinical isolate MSSE 15-4): 2 µg/mL
Anti-bacterial activity (MIC), strain MSSE 15-5 ([9]; clinical isolate MSSE 15-5): 2 µg/mL
Anti-bacterial activity (MIC), strain MSSE 15-6 ([9]; clinical isolate MSSE 15-6): 2 µg/mL
inhibition at 30 µM [10]: 14%
